Experimental data as given in article PMC10154516, “Potential profound fluctuation in tacrolimus concentration on consumption of pomegranate rind extract: A Pharmacokinetic Experiment” (Frontiers in Pharmacology, 2023).

Experiments:
[1] = molecular target: T1, CYP3A4 (Homo sapiens, UniProt P08684); assay: CYP3A4 inhibitory in vitro assay (fluorometric inhibitor screening kit); assay type: biochemical; settings: for inhibition at 150 µM: Concentration 150 (unit inferred); for inhibition at 200 µM: Concentration 200 (unit inferred)
T1 construct: purchased BioVision Inc. K702-200
Method: Briefly, incubations were conducted in a reaction volume of 200 μl/well in a 96-well microliter plate. For the calibration curve, resorufin (standard) was plotted by taking different concentrations (0, 4, 8, 12, 16, 20, 30, and 40 µl) of the 1 pmol/μl of the standard available in the kit. One mole of resorufin corresponds to the metabolism of 1 mol of the CYP3A4 substrate. […] The corresponding percentage inhibition due to the test ligand or positive inhibition control was calculated. CYP3A4 activities observed with punicalagin at varying concentrations (50,100, 150, 200, 250, and 300 µM) were noted down ([Hidaka et al., 2005]; [Faria et al., 2007]). The concentration at which 50% of the CYP3A4 activity is inhibited (IC50) was noted down. The logarithm values were plotted onto the graphs. Each compound was tested in triplicates. Inhibition curves were plotted from the log values of the concentration of the samples vs. the percentage inhibition calculated.

[2] = Pharmacokinetics of TAC in Wistar rats with and without oral PRE (LC-MS/MS of plasma); assay type: in vivo
Method: The assessment of TAC in all the samples was done with the help of the LC-MS/MS method. Samples were prepared following the method stated by [Shokati et al. (2015)]. After the preparation of samples, the supernatant was then used further for investigation. An aliquot of 10 μL was injected into the LC-MS/MS system. The column used for analysis was Eclipse XDB C-18 with 100 mm × […] × 3.5 um) with a flow rate of 1.5 ml/min (LC flow split to MS as 0.45 ml/min). The mobile phase used was a mixture of solvent A (acetonitrile) and solvent B (ammonium acetate in water) including 0.1% formic acid in a ratio of 95:05 v/v with a run time of 2 min isocratic (Supplementary Table S2. The compounds were detected by tandem mass spectrometry using electrospray ionization in the positive mode and using ion transitions m/z 821.5 -> 768.0 for TAC (standard) and m/z 721.1 -> 296.1 for ritonavir (internal standard).
Extraction of the drug from the plasma was carried out by the precipitation method. An aliquot of drug-free plasma spiked with 50 μl of ZnSO4 solution and 300 μl of methanol/acetonitrile (50:50, v/v) including IS was added. The mixture was vortex mixed for 30 s and centrifuged at 14,000 g (2000 rpm) at […] for 5 min. The supernatant solution was separated and filtered through a 0.45-µ membrane filter and stored at −20°C until use for analysis. The aforementioned extraction procedure was followed for all plasma samples, calibration curve samples, and QC samples. The optimization of the extraction procedure was required to reduce variation in the area of IS and improve injection to injection reproducibility. The schematic flow chart for the extraction procedure is depicted in Figure 1.
TAC (3 mg/kg) was administered orally to experimental rats (N = 6), and in another group, PRE at a dosage of 200 mg/kg was orally co-administered with TAC dosage of 3 mg/kg in a similar manner to six rats. Both groups were given a volume of 10 ml/kg which was a single dose to all animals. Blood samples were drawn at regular intervals, and the blood plasma concentration of TAC was assessed with the help of the validated LC-MS/MS technique ([Sattler et al., 1992]; [Alanbaki et al., 2019]).
Pretreatment of PRE (200 mg/kg) for a period of six consecutive days was done in group 2, and afterward, on the 7th day, in group 2, PRE (200 mg/kg) was co-administered with TAC (3 mg/kg) to experimental animals (N = 6). In group 1, a single dose of TAC (3 mg/kg) was administered to the animals at a volume of 10 ml/kg body weight.
To study the dose–effect relationship, the Wistar rats were equally distributed into five groups (N = 6 rats/group). PRE at a dose of 100, 200, 400, and 800 mg/kg was given by oral route to the rats, co-administrated with TAC (3 mg/kg). The drug TAC at a dose of 3 mg/kg was given similarly to all the rats in another group, with a volume of 10 ml/kg body weight. Blood was collected from the retro-orbital plexus, and the plasma samples were separated.
The experimental animals were fasted for 12 h before the collection of blood. A total of 300 μL of blood were collected in Eppendorf tubes containing heparinized solution at different time intervals (0, 0.5, 1.0, 2.0, 4.0, 8.0, 12, and 24 h). Plasma was separated and approximately 100 μl of samples was pipetted in the tubes (Figure 2). A total of 300 μl of methanol/acetonitrile (50:50, v/v) and 50 μl of ZnSO4 solution were added, and the solution was vortexed for 30 s and centrifuged at 14,000 g (2000 rpm) for 10 min (Figure 2). All the samples were stored at −20°C until further analysis ([Anlamlert and Sermsappasuk, 2020]).
Pharmacokinetic parameters such as time to reach the maximum concentration (Tmax) and Cmax of TAC were read from the […] (observed blood concentration vs. time profile). AUC0-12 was calculated with the help of a linear trapezoidal rule (Drug and Statistics (DAS) software version 2.1.1). […]

[3] = human, probe kit CYP3A4 substrate metabolised to resorufin (not named), read-out: % Relative Inhibition

T1 sequence (P08684 whole entry): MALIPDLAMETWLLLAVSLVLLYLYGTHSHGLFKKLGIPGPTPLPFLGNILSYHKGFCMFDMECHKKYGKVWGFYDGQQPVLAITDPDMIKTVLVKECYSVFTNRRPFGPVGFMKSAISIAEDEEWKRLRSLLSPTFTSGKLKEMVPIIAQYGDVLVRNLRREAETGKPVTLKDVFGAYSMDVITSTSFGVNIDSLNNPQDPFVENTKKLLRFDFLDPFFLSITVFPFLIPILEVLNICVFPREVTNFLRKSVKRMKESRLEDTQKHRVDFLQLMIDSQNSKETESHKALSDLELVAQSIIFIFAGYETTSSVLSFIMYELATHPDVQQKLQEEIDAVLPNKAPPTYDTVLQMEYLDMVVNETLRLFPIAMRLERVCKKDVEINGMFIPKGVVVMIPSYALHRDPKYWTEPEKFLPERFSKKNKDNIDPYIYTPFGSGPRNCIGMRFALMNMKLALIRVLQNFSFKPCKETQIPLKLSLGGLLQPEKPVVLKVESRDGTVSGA

| Mean plasma concentration of TAC ([2]; TAC 3 mg/kg co-administered with PRE 800 mg/kg, multiple-dose study) | AUC0-12 of TAC ([2]; TAC 3 mg/kg co-administered with PRE 100, 200, 400, 800 mg/kg) | Average plasma concentration of TAC ([2]; TAC 3 mg/kg co-administered with PRE 100 to 400 mg/kg, multiple-dose study) | t1/2 of TAC ([2]; TAC 3 mg/kg co-administered with PRE varied doses) | AUC0-inf of TAC ([2]; TAC 3 mg/kg p.o. alone) | Cmax ([2]; Wistar, po, TAC 3 mg/kg p.o. alone, rat plasma) | Tmax ([2]; Wistar, rat, plasma, po, TAC 3 mg/kg p.o. alone) | half-life ([2]; Wistar, rat, plasma, po, TAC 3 mg/kg p.o. alone, read-out: t1/2 of TAC (converted)) | Compound | inhibition at 50 µM ([1]; human, probe kit CYP3A4 substrate metabolised to resorufin (not named), Concentration 50 (unit inferred), read-out: % Relative Inhibition) | inhibition at 100 µM ([1]; human, probe kit CYP3A4 substrate metabolised to resorufin (not named), Concentration 100 (unit inferred), read-out: % Relative Inhibition) | inhibition at 150 µM [1, 3] | inhibition at 200 µM [1, 3] | inhibition at 250 µM ([1]; human, probe kit CYP3A4 substrate metabolised to resorufin (not named), Concentration 250 (unit inferred), read-out: % Relative Inhibition) | inhibition at 300 µM ([1]; human, probe kit CYP3A4 substrate metabolised to resorufin (not named), Concentration 300 (unit inferred), read-out: % Relative Inhibition) | CYP3A4 inhibitory activity ([1]; varied concentrations) |
| --- | --- | --- | --- | --- | --- | --- | --- | --- | --- | --- | --- | --- | --- | --- | --- |
| – | – | – | – | – | – | – | – | O=C1O[C@H]2[C@@H]3OC(=O)c4cc(O)c(O)c(O)c4-c4c(O)c(O)c5oc(=O)c6c(c(O)c(O)c7oc(=O)c4c5c76)-c4c(cc(O)c(O)c4O)C(=O)OC[C@H]3OC(O)[C@@H]2OC(=O)c2cc(O)c(O)c(O)c2-c2c1cc(O)c(O)c2O (mixture of isomers) [Punicalagin] | 89.1% | 76.2% | 64.5% | 52.5% | 35.2% | 11.4% | exhibits CYP3A4 inhibitory activity |
| does not increase | increased with an increase in PRE doses | increases with an increase in PRE dose | prolonged | 61.91 ± 17.37 ngh/ml | 9.03 ± 1.21 ng/mL | 54.6 ± 10.8 min | 7.2 ± 2.4 min | C=CC[C@@H]1/C=C(\C)C[C@H](C)C[C@H](OC)[C@H]2O[C@@](O)(C(=O)C(=O)N3CCCC[C@H]3C(=O)O[C@H](/C(C)=C/[C@@H]3CC[C@@H](O)[C@H](OC)C3)[C@H](C)[C@@H](O)CC1=O)[C@H](C)C[C@@H]2OC [TAC, Tacrolimus] | – | – | – | – | – | – | – |
| – | – | – | – | – | – | – | – | CC(=O)N1CCN(c2ccc(OCC3COC(Cn4ccnc4)(c4ccc(Cl)cc4Cl)O3)cc2)CC1 (centres unmarked) [Ketoconazole] | – | – | 72.5% | 55% | – | – | – |
